What was measured:
[1] = tested on: HLE; conditions: relative to α1-proteinase inhibitor with P1 Met, literature; cited from earlier work
[2] = tested on: human FXa; experiment: Equilibrium inhibition constant with Factor Xa (tight-binding analysis); type: biochemical; conditions: compared with wild type
Description: Determination of Equilibrium Inhibition Constants Apparent Ki values (Ki *) for the inhibition of the enzymes tested by ecotin and mutants were measured as follows. All reactions were performed at 25° C. Stock solutions of trypsin were quantitated by active site burst titration with MUGB as previously described (Jameson, G. W. et al., Biochem. J. 131:107-117 [1973]) using a Fluoroskan II plate reader at excitation wavelength of 355 nm and emission wavelength of 460 nm. Data was collected on a Macintosh SE20 using either Delta Soft II Fl v3.31 software (BioMetallics). Active site titrated trypsin was then used to quantitate ecotin active sites using BAPA as the substrate; a stoichiometry of 1:1 was assumed (Chung, C. H. et al., supra). Factor Xa, Factor XIIa, plasma kallikrein, or HLE were then quantitated by active site titration using ecotin as a standard, again assuming 1:1 stoichiometry. In addition, the concentration of HLE was quantitated by methods previously described using a calibrated stock of α1 -proteinase inhibitor to titrate the HLE active sites (Beatty, K. et al., J. Biol. Chem. 255:3931-3934 [1980]); the same HLE active site concentration was determined using both ecotin and α1 -proteinase inhibitor. The substate for FXa was Spectrozyme fXa (0.5 mM); the substrate for FXIIa (0.5 mM) and plasma kallikrein was S2302 (0.5 mM); the substrate for HLE was MeOSuc-Ala-Ala-Pro-Val-pNA (0.4 mM). There was good agreement upon comparison of the protein concentrations determined by amino acid analysis, Bradford analysis (Bradford, M. M. Anal. Biochem. 72:248-254 (1976) or active site titrations for trypsin, ecotin, FXa, FXIIa, plasma kallikrein, and HLE.
Therefore, apparent equilibrium dissociation values (Ki *) were determined using methods derived for tight-binding inhibitors (Morrison, J. F. Biochim. Biophys. Acta 185:269-286 [1969]), (Bieth, J. in Proteinase Inhibitors (Fritz, H., Tschesche, H., Greene, L. J. and Truscheit, E., Ed.) pp 463-469, Springer-Verlag, New York [1974]). Data were fit by nonlinear regression analysis to equation 1 and values for Ki * were determined. [formula] where α is the fractional activity (steady-state inhibited rate divided by the uninhibited rate), [Eo ] is the total enzyme concentration, and [Io ] is the total ecotin concentration. Since the inhibitor and substrate compete for the same site, the true Ki value is related to Ki^* by the expression Ki =Ki */(1+[S]/Km), where Km is the Michaelis constant for the substrate, and [S] is the substrate concentration.
a. […] Following a 1 hour incubation at room temperature to reach equilibration of the enzyme.cndot.inhibitor complex, 20 μl of 5 mM Spectrozyme fXa was added, and the steady-state rate of product formation measured by monitoring the change in absorbance at 405 nm. The Km for Spectrozyme fXa with FXa under these conditions was determined to be 0.23 mM by linear regression analysis of Lineweaver-Burke plots.

[3] = tested on: FXa; experiment: Ecotin·FXa dissociation rate constant (HLE trap); type: biochemical, human; conditions: calculated from (Ki)·(kon)
Description: Determination of FXa dissociation rate constant The dissociation rate constant of the ecotin.cndot.FXa complex was measured using HLE to trap the free ecotin released from the complex. FXa (10 μM) was incubated for 1 h in TNCT buffer in the presence and absence of ecotin (12.5 μM) and diluted 1000-fold into TNCT buffer with and without HLE (500 nM). Aliquots (180 μl ) were removed at various times and initial rates of free FXa were measured at 405 nm with 20 μl of 5 mM Spectrozyme fXa. The product curve (free FXa versus time) was fit to equation 6; the value for koff was determined by nonlinear regression analysis.
To measure the dissociation rate constant of ecotin from FXa, the complex was diluted 1000-fold into buffer containing a 50-fold excess of HLE to trap the free ecotin and prevent reassociation. In the absence of HLE, reassociation of ecotin with FXa was so rapid that free FXa was barely detectible (FIG. 4B). Progress of dissociation was monitored as the increase in hydrolysis rate of Spectrozyme fXa resulting from the increasing free FXa with time. Because HLE prevented reassociation the rate of dissociation of the E·I complex is given by equation (5): [formula] which upon integration gives equation (6): […]
where [E] is the free [FXa] at any time t, [E.cndot.I]0 is the concentration of the complex at time zero, and koff is the first order dissociation rate constant. The time dependent E·I complex dissociation curve fit to equation (6) by nonlinear regression analysis is shown in FIG. 4B; the dissociation rate constant for ecotin tested is shown above in Table I.

Substance	decreased inhibition towards HLE [1]	inhibition of FXa, in words [2]	koff (values in parenthesis) [3] [s⁻¹]
α1-Proteinase inhibitor (Pittsburgh): naturally occuring mutant of the serpin α1-proteinase inhibitor which has Arg in the P1 position instead of Met	10,000 fold	–	–
M84D	–	significant inhibition	–
M84A	–	–	0.00066
M84E	–	significant inhibition	0.00057

From US6113896A, “Pharmaceutical compositions containing ecotin and homologs thereof” (priority 1994, dated 2000)
